What is called Cmax is the peak of the concentration-time curve.

Each structure is given as a SMILES string.

The subject of data set [1] is K562.CD19, Raji, Granta-519 cells. Put plainly: Cytolytic activity of chronically stimulated CAR T cells with rescue treatment, CD19+ tumor cells. Particulars: 0.001 μM or 0.01 μM, E:T 1:1, vs control. In kind it is cell-based, human. The method, then:
Anti-CD19 CAR-expressing T cells from three donors, produced as described in Example 1, were stimulated under conditions to induce chronic stimulation (to produce hypofunctional, exhausted T cells) and then were subsequently treated (rescue) with (S)-3-[4-(4-morpholin-4-ylmethyl-benzyloxy)-1-oxo-1,3-dihydro-isoindol-2-yl]-piperidine-2,6-dione (Compound A), or a vehicle control. Long-term, chronic stimulation was carried out by stimulation of CAR T cells with 30 μg/mL plate-bound anti-idiotypic (anti-ID) antibody for 6 days, substantially as described in Example 3 but in the absence of Compound A. After the chronic stimulation, the CAR-T cells were rechallenged with CD19-expressing target cells in the presence of Compound A, and cytolytic activity or cytokine production was assessed.
CAR T cells that had been stimulated for 6 days with anti-ID were co-cultured with CD19+ tumor cells at an effector to target (E:T) ratio of 1:1, in the presence of Compound A (0.001 μM or 0.01 μM). The assessed CD19+ tumor cells included K562 cells transduced with CD19 (K562.CD19), Raji cells or Granta-519 cells.

Data set [2] concerns anti-CD19 CAR T cells. Put plainly: Proliferation and cell cycle of acutely stimulated anti-CD19 CAR T cells. In kind it is cell-based, human. As for the experimental part:
Cell cycle and proliferation of anti-CD19 CAR T cells was measured by labeling cells using the Click-iT™ EdU Cell Proliferation Kit after which the prepared cells were analyzed by flow cytometry for DNA content. Numbers of anti-CD19 CAR T cells were measured over time using an IncuCyte® Live-Cell Analysis System.
As shown, treatment with Compound A reduced the proliferation of anti-CD19 CAR T cells. To further assess the effects on reducing proliferation, cell cycle was measured by flow cytometry by analyzing DNA content. FIG. 7D depicts plots of the percentage of cells in G1 phase (mean±SEM from data pooled from 3 donors and 2 independent experiments).

Data set [3] relates to RL CD19+ tumor cells. Description: Acute cytolytic activity, anti-CD19 CAR T cells co-cultured with RL CD19+ tumor cells. In kind it is cell-based, human. The method, then: Anti-CD19 CAR T cells were co-cultured with RL CD19+ tumor cells at an effector to target (E:T) ratio of 1:1, in the presence of (S)-3-[4-(4-morpholin-4-ylmethyl-benzyloxy)-1-oxo-1,3-dihydro-isoindol-2-yl]-piperidine-2,6-dione (Compound A) (0.001 μM, 0.01 μM or 0.1 μM). Acute cytolytic activity was measured by tumor cell number over time. […] Co-culture of CAR T cells with RL resistant tumor cells in the presence of Compound A improved cytolytic CAR T cell function, […]

The test system of data set [4] is Ikaros. Description: Ikaros expression in chronically stimulated CAR T cells with concurrent treatment. It counts as cell-based, human. Particulars: 100 nM. The method, then:
Anti-CD19 CAR-expressing T cells were produced substantially as described in Example 1. To subject cells to chronic stimulation conditions, the CAR+ T cells were stimulated with 30 μg/mL plate-bound anti-idiotypic (anti-ID) antibody (see e.g. WO2018/023100) for 6 days in the presence of (S)-3-[4-(4-morpholin-4-ylmethyl-benzyloxy)-1-oxo-1,3-dihydro-isoindol-2-yl]-piperidine-2,6-dione (Compound A) or a vehicle control, to induce chronic stimulation. […] Cells were assessed at various times for cytolytic function, CAR T cell number and cytokine production.
After the long-term, chronic stimulation with concurrent treatment with Compound A, CAR T cells were assessed for Ikaros expression or for CAR T function following rechallenge with CD19-expressing target cells.
Expression of Ikaros in CAR T cells that had been subjected to chronic stimulation in the presence of Compound A (1 nM, 10 nM or 100 nM) was measured by intracellular flow cytometry analysis using an antibody to Ikaros.

Data set [5] in a line: Cmax in healthy subjects. Particulars: human, in vivo, doses of 0.3 mg and 1.0 mg.
Data set [6] concerns Raji or Granta-519 lymphoma cells. Put plainly: Cytolytic assay of CAR T cells treated 3 days, Raji or Granta-519 target cells. Conditions: 1 nM, 10 nM or 100 nM, 3 days treatment. In kind it is cell-based, human. As for the experimental part:
After 3 days of treatment with Compound A, anti-CD19 CAR T cells were co-cultured with Raji or Granta-519 lymphoma cells using a cytolytic assay. To assess cytolytic activity, the target cells were labeled with NucLight Red (NLR) to permit tracking by fluorescent microscopy. Killing activity was assessed by measuring the loss of viable target cells over 200 hours, as determined by loss of fluorescent signal over time by kinetic fluorescence microscopy (using the INCUCYTE® Live Cell Analysis System, Essen Bioscience). Tumor cell numbers were normalized to time zero and measured over time (mean±SEM).
FIG. 7B depicts the tumor cell numbers of anti-CD19 CAR T cells treated with 1 nM, 10 nM, or 100 nM Compound A as compared with vehicle control (no Compound A) and tumor only.

Data set [7] has as its system A549.CD19 tumor spheroids. Description: A549.CD19 tumor spheroid model, rescue treatment of chronically stimulated CAR T cells. It counts as cell-based, human. The method, then:
An A549.CD19 tumor spheroid model was further used to elucidate the T cell modulatory activity of the compounds. A549.CD19 tumor spheroid growth is insensitive to monotherapy treatment with the immunomodulatory compounds. CAR T cells that had been stimulated for 6 days with anti-ID were co-cultured by incubation with A549.CD19 tumor spheroids, in the presence of presence of Compound A (0.001 μM, 0.01 μM, or 0.1 μM). Averaged measurement of tumor spheroid size at Day 9 following co-culture with CAR-T cells was assessed. […] The number of CAR T cells in co-cultures with tumor spheroids, measured at day 5, were increased with treatment with Compound A (FIG. 5B).
Cytokines (IFNγ, IL-2 and TNFalpha) were measured from supernatant of the chronically stimulated CAR T cells above that had been co-cultured for 5 days with CD19 tumor spheroids. The log 2 fold change compared to control cells (chronically stimulated cells that had not been concurrently treated with immunomodulatory compound) is shown in FIG. 5E.

In the case of `O=C1CC[C@H](N2Cc3c(OCc4ccc(CN5CCOCC5)cc4)cccc3C2=O)C(=O)N1` [Compound A, (S)-3-[4-(4-morpholin-4-ylmethyl-benzyloxy)-1-oxo-1,3-dihydro-isoindol-2-yl]-piperidine-2,6-dione], in data set [1], the “cytolytic activity (tumor cell number over time)” value is “statistically significant improvement”. For the same molecule, the “proliferation of anti-CD19 CAR T cells” value in data set [2] (1 nM, 10 nM or 100 nM) is reported as “reduced”. In data set [2] (3 days treatment), the “percentage of cells in the G1 phase” value is on record as “statistically significant increase”. The “sensitivity of RL tumor cell line to monotherapy” value in data set [3] (0.01 μM or 0.1 μM) is “sensitive”. For the same molecule, the “cytolytic CAR T cell function against RL tumor cells” value in data set [3] (co-culture, E:T 1:1, 0.001, 0.01 or 0.1 μM) is listed as “improved”. The “Ikaros expression in chronically stimulated cells” value in data set [4] is listed as “reduction of Ikaros expression was maintained”. This molecule showed a Cmax in data set [5] of 2.41 to 11.8 nM. Besides, the “cytolytic activity against target cells” value in data set [6] was “improved”. Also, the “number of CAR T cells in co-cultures with tumor spheroids” value in data set [7] (day 5, 0.01 μM or 0.1 μM) was “increased”. The “CAR T cell cytolytic function, A549.CD19 spheroid growth” value in data set [7] (rescue, 0.001, 0.01 or 0.1 μM, Day 9) was “improved”. Besides, the “IFNγ in co-culture supernatant” value in data set [7] (rescue, 5 days co-culture with spheroids) is “statistically significant increase”.

The values are drawn from US20220401483A1, “COMBINATION OF A T CELL THERAPY AND (S)-3-[4-(4-MORPHOLIN-4-YLMETHYL-BENZYLOXY)-L-OXO-L,3-DIHYDRO-ISOINDOL-2-YL]-PIPERIDINE-2,6-DIONE” (Juno Therapeutics, Inc., priority 2019, published 2022).
